# Measured values taken from paper PMC3914206.
# How the values were obtained:
# Type in all cases: binding
# Settings in all cases: Compound Concentration 10 µM
# [1] = target: T1, panel of 442 kinases (Homo sapiens, UniProt O00750)
# T1 construct: purchased KINOMEscan
# Description: (§1) We assessed the selectivity of members of this scaffold using the KINOMEscan methodology across a near comprehensive panel of 442 kinases [[18,27]].
# [2] = target: T2, panel of 442 kinases (Homo sapiens, UniProt P00533, L861Q)
# T2 construct: purchased KINOMEscan
# T2 sequence (P00533 25-1210 L861Q): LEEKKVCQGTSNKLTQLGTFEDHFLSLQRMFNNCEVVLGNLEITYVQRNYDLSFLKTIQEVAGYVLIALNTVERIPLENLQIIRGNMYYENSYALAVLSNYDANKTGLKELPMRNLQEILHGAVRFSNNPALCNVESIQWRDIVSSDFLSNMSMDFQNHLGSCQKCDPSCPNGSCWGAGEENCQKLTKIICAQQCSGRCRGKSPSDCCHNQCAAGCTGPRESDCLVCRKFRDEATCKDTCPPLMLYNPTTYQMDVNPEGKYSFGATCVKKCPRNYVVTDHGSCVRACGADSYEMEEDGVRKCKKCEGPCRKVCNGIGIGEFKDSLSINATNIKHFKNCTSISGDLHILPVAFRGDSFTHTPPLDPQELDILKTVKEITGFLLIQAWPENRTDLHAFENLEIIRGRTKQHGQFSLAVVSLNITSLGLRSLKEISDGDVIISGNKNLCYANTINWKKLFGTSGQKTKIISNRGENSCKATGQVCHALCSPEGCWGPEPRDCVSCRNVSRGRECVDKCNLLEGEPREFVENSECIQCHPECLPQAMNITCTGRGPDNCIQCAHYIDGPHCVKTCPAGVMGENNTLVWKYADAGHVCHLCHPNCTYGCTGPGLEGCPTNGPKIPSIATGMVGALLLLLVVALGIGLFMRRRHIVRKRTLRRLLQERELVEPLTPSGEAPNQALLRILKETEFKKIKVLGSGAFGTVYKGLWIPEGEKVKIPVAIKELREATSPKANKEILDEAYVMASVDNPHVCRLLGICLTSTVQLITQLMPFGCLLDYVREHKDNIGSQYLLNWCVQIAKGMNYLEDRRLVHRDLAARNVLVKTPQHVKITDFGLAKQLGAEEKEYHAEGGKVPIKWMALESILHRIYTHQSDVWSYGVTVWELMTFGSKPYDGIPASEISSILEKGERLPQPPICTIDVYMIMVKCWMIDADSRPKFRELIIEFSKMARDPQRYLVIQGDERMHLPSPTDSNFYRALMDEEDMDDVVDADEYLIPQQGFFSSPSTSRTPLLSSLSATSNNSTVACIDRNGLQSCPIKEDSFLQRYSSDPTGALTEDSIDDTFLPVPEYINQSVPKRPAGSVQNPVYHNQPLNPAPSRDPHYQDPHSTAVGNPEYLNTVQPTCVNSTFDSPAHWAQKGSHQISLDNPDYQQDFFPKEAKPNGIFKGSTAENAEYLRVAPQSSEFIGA
# Description: as §1
# [3] = target: T3, panel of 442 kinases (Homo sapiens, UniProt P15056, V600E)
# T3 construct: purchased KINOMEscan
# T3 sequence (P15056 whole entry V600E): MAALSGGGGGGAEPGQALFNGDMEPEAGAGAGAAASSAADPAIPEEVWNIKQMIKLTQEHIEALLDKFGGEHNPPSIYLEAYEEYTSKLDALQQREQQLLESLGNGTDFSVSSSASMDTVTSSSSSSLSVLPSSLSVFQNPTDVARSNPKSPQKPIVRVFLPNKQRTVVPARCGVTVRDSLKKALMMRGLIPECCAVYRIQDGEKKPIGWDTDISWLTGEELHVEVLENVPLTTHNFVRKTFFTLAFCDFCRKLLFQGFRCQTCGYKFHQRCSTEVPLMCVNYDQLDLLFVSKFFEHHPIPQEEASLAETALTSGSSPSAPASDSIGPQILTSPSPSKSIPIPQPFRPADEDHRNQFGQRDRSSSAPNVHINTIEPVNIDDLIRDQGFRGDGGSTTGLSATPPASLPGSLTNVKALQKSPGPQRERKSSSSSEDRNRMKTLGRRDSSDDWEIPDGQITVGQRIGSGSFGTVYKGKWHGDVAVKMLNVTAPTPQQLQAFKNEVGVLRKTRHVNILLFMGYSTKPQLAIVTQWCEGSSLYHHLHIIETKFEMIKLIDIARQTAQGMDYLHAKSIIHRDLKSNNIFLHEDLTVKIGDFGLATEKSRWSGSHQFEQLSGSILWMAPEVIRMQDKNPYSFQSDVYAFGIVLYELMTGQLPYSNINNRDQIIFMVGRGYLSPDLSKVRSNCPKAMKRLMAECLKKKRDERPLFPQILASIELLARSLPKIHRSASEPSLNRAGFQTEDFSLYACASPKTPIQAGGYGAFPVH
# Description: as §1
# T1 sequence (O00750 whole entry): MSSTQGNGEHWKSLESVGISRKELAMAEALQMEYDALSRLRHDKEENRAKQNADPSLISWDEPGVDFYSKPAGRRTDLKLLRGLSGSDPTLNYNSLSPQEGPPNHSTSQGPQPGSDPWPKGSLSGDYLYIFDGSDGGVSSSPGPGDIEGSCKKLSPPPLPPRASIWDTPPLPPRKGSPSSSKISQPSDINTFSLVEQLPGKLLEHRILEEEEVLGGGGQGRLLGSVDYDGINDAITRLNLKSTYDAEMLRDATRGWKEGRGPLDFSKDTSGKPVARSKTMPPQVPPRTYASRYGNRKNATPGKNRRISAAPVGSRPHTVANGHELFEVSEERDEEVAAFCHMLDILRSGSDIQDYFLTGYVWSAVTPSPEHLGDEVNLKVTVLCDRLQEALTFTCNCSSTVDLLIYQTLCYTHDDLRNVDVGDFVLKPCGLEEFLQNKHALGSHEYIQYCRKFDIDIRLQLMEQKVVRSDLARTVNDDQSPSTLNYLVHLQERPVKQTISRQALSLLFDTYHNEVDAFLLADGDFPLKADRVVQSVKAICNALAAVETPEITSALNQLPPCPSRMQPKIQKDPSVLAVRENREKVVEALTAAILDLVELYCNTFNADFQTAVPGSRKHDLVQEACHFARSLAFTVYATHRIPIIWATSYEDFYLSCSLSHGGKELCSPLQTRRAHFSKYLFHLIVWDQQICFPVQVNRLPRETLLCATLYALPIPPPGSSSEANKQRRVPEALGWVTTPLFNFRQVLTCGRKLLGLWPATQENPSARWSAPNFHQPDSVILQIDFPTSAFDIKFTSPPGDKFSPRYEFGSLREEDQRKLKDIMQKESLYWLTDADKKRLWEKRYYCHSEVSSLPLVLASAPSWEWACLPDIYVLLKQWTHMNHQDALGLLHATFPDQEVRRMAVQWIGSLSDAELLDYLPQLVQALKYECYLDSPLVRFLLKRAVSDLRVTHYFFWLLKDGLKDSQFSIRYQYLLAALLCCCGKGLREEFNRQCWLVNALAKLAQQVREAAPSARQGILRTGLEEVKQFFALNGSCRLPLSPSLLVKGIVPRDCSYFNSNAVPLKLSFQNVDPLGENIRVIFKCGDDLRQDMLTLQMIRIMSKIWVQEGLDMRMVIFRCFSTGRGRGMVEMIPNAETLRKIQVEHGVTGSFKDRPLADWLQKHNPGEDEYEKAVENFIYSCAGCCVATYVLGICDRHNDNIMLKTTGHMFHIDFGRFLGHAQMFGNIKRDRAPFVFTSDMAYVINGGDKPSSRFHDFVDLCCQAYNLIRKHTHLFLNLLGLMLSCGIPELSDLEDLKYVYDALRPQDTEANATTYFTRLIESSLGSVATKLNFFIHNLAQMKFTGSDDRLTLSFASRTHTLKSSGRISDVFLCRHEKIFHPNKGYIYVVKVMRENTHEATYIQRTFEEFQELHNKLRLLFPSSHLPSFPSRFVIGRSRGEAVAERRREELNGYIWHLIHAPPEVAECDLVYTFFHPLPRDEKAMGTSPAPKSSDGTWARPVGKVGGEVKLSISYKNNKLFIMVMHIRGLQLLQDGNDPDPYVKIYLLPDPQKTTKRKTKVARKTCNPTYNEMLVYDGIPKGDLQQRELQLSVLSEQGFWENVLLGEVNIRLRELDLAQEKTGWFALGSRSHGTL
compound,measurement,setting,value
CCOc1cc(C(=O)N2CCC(N3CCN(C)CC3)CC2)ccc1Nc1ncc2c(n1)N(C1CCCC1)c1ccccc1C(=O)N2C [Compound 26],KINOMEscan: PIK3C2B,[1],100
same,KINOMEscan: EGFR(L861Q),[2],100
same,KINOMEscan: BRAF(V600E),[3],100
COc1cc(C(=O)N2CCC(N3CCN(C)CC3)CC2)ccc1Nc1ncc2c(n1)N1CCc3cccc(c31)C(=O)N2C [Compound 24],KINOMEscan: EGFR(L861Q),[2],82
COc1cc(C(=O)N2CCC(N3CCN(C)CC3)CC2)ccc1Nc1ncc2c(n1)N(C)c1ccccc1C(=O)N2C [15 (LRRK2-IN-1)],KINOMEscan: PIK3C2B,[1],100
same,KINOMEscan: EGFR(L861Q),[2],100
same,KINOMEscan: BRAF(V600E),[3],100
"COc1cc(C(=O)N2CCC(N3CCN(C)CC3)CC2)ccc1Nc1ncc2c(n1)N(C1CCCC1)c1ccccc1C(=O)N2C [Compound 25, 11-cyclopentyl-2-((2-methoxy-4-(4-(4-methylpiperazin-1-yl)piperidine-1-carbonyl)phenyl)amino)-5-methyl-5H-benzo[e]pyrimido[5,4-b][1,4]diazepin-6(11H)-one]",KINOMEscan: PIK3C2B,[1],100
same,KINOMEscan: EGFR(L861Q),[2],89
same,KINOMEscan: BRAF(V600E),[3],100
